Measured values: patent US10597380B2, “Pyridazinone-based broad spectrum anti-influenza inhibitors” (Hoffmann-La Roche Inc., priority 2017, dated 2020)
pIC50: −log10 of the molar value.

The compounds below were run on Influenza A/WSN/33-Luciferase virus (assay: microbe, parasite or virus in culture). Conditions: A549, 72 h, luciferase signal three days later, read-out: IC50 antiviral activity (Luciferase reporter assay).
Format: cell-based
In the case of `Cn1cccc(Nc2nn(-c3ccc(OC(F)(F)F)cc3)c(=O)c3cccc(F)c23)c1=O` [Example 18, 5-fluoro-4-[(1-methyl-2-oxo-3-pyridyl)amino]-2-[4-(trifluoromethoxy)phenyl]phthalazin-1-one], the pIC50 was 6.91.
Work on `Cn1cccc(Nc2nn(-c3ccc(C(C)(C)C)cc3F)c(=O)c3c2CCC3)c1=O` [Example 53, 3-(4-tert-butyl-2-fluoro-phenyl)-1-[(1-methyl-2-oxo-3-pyridyl)amino]-6,7-dihydro-5H-cyclopenta[d]pyridazin-4-one] yielded a pIC50 of 7.62.
With `Cn1cccc(Nc2nn(-c3ccc(C4CC4)cc3)c(=O)c3ccccc23)c1=O` [Example 12, 2-(4-cyclopropylphenyl)-4-[(1-methyl-2-oxo-3-pyridyl)amino]phthalazin-1-one] the pIC50 was 6.39.
For `O=c1c(Nc2nn(-c3ccc(OC(F)(F)F)cc3)c(=O)c3ccccc23)cccn1CCN1CCC(O)C1` (stereo not shown) [Example 78, 4-[[1-[2-(3-hydroxypyrrolidin-1-yl)ethyl]-2-oxo-3-pyridyl]amino]-2-[4-(trifluoromethoxy)phenyl]phthalazin-1-one], the pIC50 was 7.51.
With `O=c1c(Nc2nn(-c3ccc(OC(F)(F)F)cc3)c(=O)c3c2CCC3)cccn1CCN1CC(O)C1` [Example 46, 1-[[1-[2-(3-hydroxyazetidin-1-yl)ethyl]-2-oxo-3-pyridyl]amino]-3-[4-(trifluoromethoxy)phenyl]-6,7-dihydro-5H-cyclopenta[d]pyridazin-4-one] the pIC50 was 7.48.
`CN1CCc2c(c(Nc3cccn(C)c3=O)nn(-c3ccc(OC(F)(F)F)cc3)c2=O)C1` [Example 133, 6-Methyl-4-[(1-methyl-2-oxo-3-pyridyl)amino]-2-[4-(trifluoromethoxy)phenyl]-7,8-dihydro-5H-pyrido[3,4-d]pyridazin-1-one] was tested, and the pIC50 was 6.27.
Work on `Cn1cccc(Nc2nn(-c3ccc(OC(F)(F)F)cc3)c(=O)c3c2CCC3)c1=O` [Example 28, 1-[(1-methyl-2-oxo-3-pyridyl)amino]-3-[4-(trifluoromethoxy)phenyl]-6,7-dihydro-5H-cyclopenta[d]pyridazin-4-one] yielded a pIC50 of 8.10.
For `CNC(=O)CCn1cccc(Nc2nn(-c3ccc(OC(F)(F)F)cc3)c(=O)c3ccccc23)c1=O` [Example 95, N-methyl-3-[2-oxo-3-[[4-oxo-3-[4-(trifluoromethoxy)phenyl]phthalazin-1-yl]amino]-1-pyridyl]propanamide], the pIC50 was 6.99.
In the case of `CNC(=O)COCCn1cccc(Nc2nn(-c3ccc(OC(F)(F)F)cc3)c(=O)c3ccccc23)c1=O` [Example 102, N-methyl-2-[2-[2-oxo-3-[[4-oxo-3-[4-(trifluoromethoxy)phenyl]phthalazin-1-yl]amino]-1-pyridyl]ethoxy]acetamide], the pIC50 was 7.43.
With `Cn1cccc(Nc2nn(-c3ccc(OC(F)(F)F)cc3)c(=O)c3c2CCN(C=O)C3)c1=O` [Example 155, 1-[(1-Methyl-2-oxo-3-pyridyl)amino]-4-oxo-3-[4-(trifluoromethoxy)phenyl]-7,8-dihydro-5H-pyrido[3,4-d]pyridazine-6-carbaldehyde] the pIC50 was 7.07.
`O=C(O)CCCn1cccc(Nc2nn(-c3ccc(OC(F)(F)F)cc3)c(=O)c3ccccc23)c1=O` [Example 110, 4-[2-oxo-3-[[4-oxo-3-[4-(trifluoromethoxy)phenyl]phthalazin-1-yl]amino]-1-pyridyl]butanoic acid] was tested, and the pIC50 was 6.32.
In the case of `CNC(=O)C(C)(C)Cn1cccc(Nc2nn(-c3ccc(OC(F)(F)F)cc3)c(=O)c3ccccc23)c1=O` [Example 99, N,2,2-trimethyl-3-[2-oxo-3-[[4-oxo-3-[4-(trifluoromethoxy)phenyl]phthalazin-1-yl]amino]-1-pyridyl]propanamide], the pIC50 was 6.54.
Compound `COC(=O)CCn1cccc(Nc2nn(-c3ccc(OC(F)(F)F)cc3)c(=O)c3ccccc23)c1=O` [Example 69, methyl 3-[2-oxo-3-[[4-oxo-3-[4-(trifluoromethoxy)phenyl]phthalazin-1-yl]amino]-1-pyridyl]propanoate] has a pIC50 of 6.64.
`COCCn1cccc(Nc2nn(-c3ccc(OC(F)(F)F)cc3)c(=O)c3ccccc23)c1=O` [Example 71, 4-[[1-(2-methoxyethyl)-2-oxo-3-pyridyl]amino]-2-[4-(trifluoromethoxy)phenyl]phthalazin-1-one] was tested, and the pIC50 was 7.27.
For `CN(C)C(=O)Cn1cccc(Nc2nn(-c3ccc(OC(F)(F)F)cc3)c(=O)c3ccccc23)c1=O` [Example 89, N,N-dimethyl-2-[2-oxo-3-[[4-oxo-3-[4-(trifluoromethoxy)phenyl]phthalazin-1-yl]amino]-1-pyridyl]acetamide], the pIC50 was 7.42.
In the case of `COc1cccc2c(=O)n(-c3ccc(OC(F)(F)F)cc3)nc(Nc3cccn(C)c3=O)c12` [Example 19, 5-methoxy-4-[(1-methyl-2-oxo-3-pyridyl)amino]-2-[4-(trifluoromethoxy)phenyl]phthalazin-1-one], the pIC50 was 4.23.
`CCCn1cncc(Nc2nn(-c3ccc(OC(F)(F)F)cc3)c(=O)c3c2CCN(C(C)=O)C3)c1=O` [Example 86, 6-acetyl-1-[(6-oxo-1-propyl-pyrimidin-5-yl)amino]-3-[4-(trifluoromethoxy)phenyl]-7,8-dihydro-5H-pyrido[3,4-d]pyridazin-4-one] gave a pIC50 of 7.47.
`COCCOc1ccc2c(=O)n(-c3ccc(OC(F)(F)F)cc3)nc(Nc3cccn(C)c3=O)c2c1` [Example 136, 6-(2-Methoxyethoxy)-4-[(1-methyl-2-oxo-3-pyridyl)amino]-2-[4-(trifluoromethoxy)phenyl]phthalazin-1-one] gave a pIC50 of 7.21.
`CC(C)(Cn1cccc(Nc2nn(-c3ccc(OC(F)(F)F)cc3)c(=O)c3ccccc23)c1=O)C(N)=O` [Example 101, 2,2-dimethyl-3-[2-oxo-3-[[4-oxo-3-[4-(trifluoromethoxy)phenyl]phthalazin-1-yl]amino]-1-pyridyl]propanamide] was tested, and the pIC50 was 6.96.
Work on `CN(C)C(=O)COCCn1cccc(Nc2nn(-c3ccc(OC(F)(F)F)cc3)c(=O)c3c2CCC3)c1=O` [Example 108, N,N-dimethyl-2-[2-[2-oxo-3-[[4-oxo-3-[4-(trifluoromethoxy)phenyl]-6,7-dihydro-5H-cyclopenta[d]pyridazin-1-yl]amino]-1-pyridyl]ethoxy]acetamide] yielded a pIC50 of 7.54.
With `CNC(=O)N1CCc2c(Nc3cccn(C)c3=O)nn(-c3ccc(OC(F)(F)F)cc3)c(=O)c2C1` [Example 161, N-Methyl-1-[(1-methyl-2-oxo-3-pyridyl)amino]-4-oxo-3-[4-(trifluoromethoxy)phenyl]-7,8-dihydro-5H-pyrido[3,4-d]pyridazine-6-carboxamide] the pIC50 was 6.95.
`Cn1cccc(Nc2nn(-c3ccc(C4COC4)cc3)c(=O)c3ccccc23)c1=O` [Example 11, 4-[(1-methyl-2-oxo-3-pyridyl)amino]-2-[4-(oxetan-3-yl)phenyl]phthalazin-1-one] gave a pIC50 of 5.70.
Work on `O=c1c(Nc2nn(-c3ccc(OC(F)(F)F)cc3)c(=O)c3ccccc23)cccn1CCN1CCOCC1` [Example 76, 4-[[1-(2-morpholinoethyl)-2-oxo-3-pyridyl]amino]-2-[4-(trifluoromethoxy)phenyl]phthalazin-1-one] yielded a pIC50 of 7.47.
For `CCN(CC)CCn1cncc(Nc2nn(-c3ccc(OC(F)(F)F)cc3)c(=O)c3c2CCC3)c1=O` [Example 51, 1-[[1-[2-(diethylamino)ethyl]-6-oxo-pyrimidin-5-yl]amino]-3-[4-(trifluoromethoxy)phenyl]-6,7-dihydro-5H-cyclopenta[d]pyridazin-4-one], the pIC50 was 7.36.
`Cn1cccc(Nc2nn(-c3ccc(OC(F)(F)F)cc3)c(=O)c3c2CCN(CC(C)(C)O)C3)c1=O` [Example 146, 6-(2-Hydroxy-2-methyl-propyl)-1-[(1-methyl-2-oxo-3-pyridyl)amino]-3-[4-(trifluoromethoxy)phenyl]-7,8-dihydro-5H-pyrido[3,4-d]pyridazin-4-one] showed a pIC50 of 6.78.
In the case of `CCc1ccc2c(Nc3cccn(C)c3=O)nn(-c3ccc(OC(F)(F)F)cc3)c(=O)c2c1` [Example 82, 7-ethyl-4-[(1-methyl-2-oxo-3-pyridyl)amino]-2-[4-(trifluoromethoxy)phenyl]phthalazin-1-one], the pIC50 was 7.10.
Work on `Cc1ccc(Nc2nn(-c3ccc(OC(F)(F)F)cc3)c(=O)c3ccccc23)c(=O)n1C` [Example 64, 4-[(1,6-dimethyl-2-oxo-3-pyridyl)amino]-2-[4-(trifluoromethoxy)phenyl]phthalazin-1-one] yielded a pIC50 of 6.45.
`COC(=O)CCCn1cccc(Nc2nn(-c3ccc(OC(F)(F)F)cc3)c(=O)c3ccccc23)c1=O` [Example 73, methyl 4-[2-oxo-3-[[4-oxo-3-[4-(trifluoromethoxy)phenyl]phthalazin-1-yl]amino]-1-pyridyl]butanoate] was tested, and the pIC50 was 7.31.
`CC(C)N1CCc2c(Nc3cccn(C)c3=O)nn(-c3ccc(OC(F)(F)F)cc3)c(=O)c2C1` [Example 159, 6-Isopropyl-1-[(1-methyl-2-oxo-3-pyridyl)amino]-3-[4-(trifluoromethoxy)phenyl]-7,8-dihydro-5H-pyrido[3,4-d]pyridazin-4-one] was tested, and the pIC50 was 6.73.
`NCCn1cccc(Nc2nn(-c3ccc(OC(F)(F)F)cc3)c(=O)c3c2CCC3)c1=O` [Example 130, 1-[[1-(2-Aminoethyl)-2-oxo-3-pyridyl]amino]-3-[4-(trifluoromethoxy)phenyl]-6,7-dihydro-5H-cyclopenta[d]pyridazin-4-one] was tested, and the pIC50 was 7.21.
Work on `CNC(=O)Cn1cccc(Nc2nn(-c3ccc(OC(F)(F)F)cc3)c(=O)c3c2CCCC3)c1=O` [Example 104, N-methyl-2-[2-oxo-3-[[4-oxo-3-[4-(trifluoromethoxy)phenyl]-5,6,7,8-tetrahydrophthalazin-1-yl]amino]-1-pyridyl]acetamide] yielded a pIC50 of 7.41.
`CCc1cc(Nc2nn(-c3ccc(OC(F)(F)F)cc3)c(=O)c3c2CCC3)c(=O)n(C)c1` [Example 35, 1-[(5-ethyl-1-methyl-2-oxo-3-pyridyl)amino]-3-[4-(trifluoromethoxy)phenyl]-6,7-dihydro-5H-cyclopenta[d]pyridazin-4-one] showed a pIC50 of 7.17.
`CCc1cc(Nc2nn(-c3ccc(OC(F)(F)F)cc3)c(=O)c3ccccc23)c(=O)n(C)c1` [Example 67, 4-[(5-ethyl-1-methyl-2-oxo-3-pyridyl)amino]-2-[4-(trifluoromethoxy)phenyl]phthalazin-1-one] showed a pIC50 of 6.25.
`CN(C)CCn1cncc(Nc2nn(-c3ccc(OC(F)(F)F)cc3)c(=O)c3c2CCCC3)c1=O` [Example 25, 4-[[1-[2-(dimethylamino)ethyl]-6-oxo-pyrimidin-5-yl]amino]-2-[4-(trifluoromethoxy)phenyl]-5,6,7,8-tetrahydrophthalazin-1-one] gave a pIC50 of 7.85.
